Values quoted from earlier work, collected in patent US8038645B2 (Bayer Technology Services GmbH, priority 2005, dated 2011).
Like-named read-outs stand apart in the source and are kept apart here.

Legend:
[1] = input parameter for PK-Sim
[2] = input parameter for PK-Sim; remark: listed apart in the source

SMILES: CC(C)c1cccc(C(C)C)c1O [propofol]
- Lipophilicity [1]: 2.6
- Free plasma fraction (age-dependent) [2]: 0.020-0.025
- Blood clearance in ml/min: mean (std. dev.) (Ickz et al., adults, mean age 45.2 years, 21 mg/kg/h for 5 min, then 12 mg/kg/h for 10 min, then 6 mg/kg/h): 33.8 (7.8) ml/min
- Blood clearance in ml/min: mean (std. dev.) (Kanto et al., pregnant women, mean age 27.1 years, 2.5 mg/kg bolus over 0.17 min): 27.5 (5.5) ml/min
- Blood clearance in ml/min: mean (std. dev.) (Mertens et al., young men, mean age 24 years, 1 mg/kg bolus over 1 min, then 3 mg/kg/h): 31.2 (2.8) ml/min
- Blood clearance in ml/min: mean (std. dev.) (Raoof et al., children, mean age 1.9 years, 3 mg/kg iv): 38.7 (6.8) ml/min
- Blood clearance in ml/min: mean (std. dev.) (Saint-Maurice et al., children, mean age 5.5 years, 2.5 mg/kg bolus over 0.33 min): 30.6 (2.9) ml/min
- Blood clearance in ml/min: mean (std. dev.) (Valtonen et al., children, mean age 6.5 years, 2.5 mg/kg bolus over 0.5 min): 32.0 (16.8) ml/min
- Clearance (age-dependent) (input parameter for PK-Sim): 29 to 50 mL/min/kg
